Data reported in US5466671A, “Apidaecin-type peptide antibiotics with improved activities and/or different antibacterial spectrum” (priority 1994, dated 1995).
≈ marks a conversion by molar mass, not a printed value. Residues, ends and D or L forms follow the SMILES beside them.

Legend:
[1] = test system: Escherichia coli (ATCC11775); assay: Inhibition zone assay (agar plate); format: cell-based; settings: for inhibition zone diameter (number of plus signs): agar plate, 50 nanomoles/well, 3 mm wells
Enterobacter cloacae = assay: Inhibition zone assay (agar plate); format: cell-based; settings: for inhibition zone diameter (number of plus signs): agar plate, 50 nanomoles/well, 3 mm wells
Erwinia amylovora = assay: Inhibition zone assay (agar plate); format: cell-based; settings: for inhibition zone diameter (number of plus signs): agar plate, 50 nanomoles/well, 3 mm wells
Klebsiella pneumoniae = assay: Inhibition zone assay (agar plate); format: cell-based; settings: for inhibition zone diameter (number of plus signs): agar plate, 50 nanomoles/well, 3 mm wells
Morganella morganii = assay: Inhibition zone assay (agar plate); format: cell-based; settings: 50 nanomoles/well, 3 mm wells
Salmonella typhimurium = assay: Inhibition zone assay (agar plate); format: cell-based; settings: for inhibition zone diameter (number of plus signs): agar plate, 50 nanomoles/well, 3 mm wells
Yersinia enterocolitica = assay: Inhibition zone assay (agar plate); format: cell-based; settings: 50 nanomoles/well, 3 mm wells
[2] = test system: Acinetobacter calcoaceticus; assay: Inhibition zone assay (agar plate); format: cell-based; settings: for inhibition zone diameter (number of plus signs): agar plate, 50 nanomoles/well, 3 mm wells
[3] = test system: Agrobacterium tumefaciens; assay: Inhibition zone assay (agar plate); format: cell-based; settings: for inhibition zone diameter (number of plus signs): agar plate, 50 nanomoles/well, 3 mm wells
Pseudomonas syringae = assay: Inhibition zone assay (agar plate); format: cell-based; settings: agar plate, 50 nanomoles/well, 3 mm wells
Rhizobium meliloti = assay: Inhibition zone assay (agar plate); format: cell-based; settings: 50 nanomoles/well, 3 mm wells
Haemophilus influenzae = assay: Inhibition zone assay (agar plate); format: cell-based; settings: 50 nanomoles/well, 3 mm wells
E. coli Apid^R [4] = assay: Minimal inhibitory concentration (liquid culture); format: cell-based; settings: a-b = highest concentration with growth - lowest without growth
Text: For details see `Experimental Procedures`.

E. coli 11775 [5] = settings: against 10^7 cells/ml, parental strain ATCC 11775; cited from earlier work
E. coli Apid^R [6] = settings: cited from earlier work
E. coli 11775 [7] = assay: Minimal inhibitory concentration (liquid culture); settings: a-b = highest concentration with growth - lowest without growth
E. coli 23802 = assay: Minimal inhibitory concentration (liquid culture); settings: inoculum 5000 CFU/ml; a-b = highest concentration with growth - lowest without growth
E. coli 25922 = assay: Minimal inhibitory concentration (liquid culture); settings: inoculum 1100 CFU/ml; a-b = highest concentration with growth - lowest without growth
S. typhimurium = assay: Minimal inhibitory concentration (liquid culture); settings: inoculum 8 × 10^6 CFU/ml; a-b = highest concentration with growth - lowest without growth
A. calcoaceticus = assay: Minimal inhibitory concentration (liquid culture); settings: inoculum 16 × 10^6 CFU/ml; a-b = highest concentration with growth - lowest without growth
M. morganii = assay: Minimal inhibitory concentration (liquid culture); settings: inoculum 400 CFU/ml; a-b = highest concentration with growth - lowest without growth
Y. enterocolitica = assay: Minimal inhibitory concentration (liquid culture); settings: inoculum 5000 CFU/ml; a-b = highest concentration with growth - lowest without growth
Salmonella typhi = format: cell-based
Shigella dysenteriae = format: cell-based; settings: 50 nanomoles per well (3 mm diameter)
E. coli D22 = format: cell-based; settings: 50 nanomoles per well (3 mm diameter)
strains tested = format: cell-based; settings: agar plate
gram negative bacteria = settings: many gram negative bacteria; cited from earlier work
gram positives = settings: cited from earlier work
[8] = test system: Escherichia coli (11775 Apid R); format: cell-based; settings: agar plate, 50 nanomoles/well, 3 mm wells
Francisella tularensis = format: cell-based; settings: agar plate, 50 nanomoles/well, 3 mm wells
[9] = 50 nanomoles per well (3 mm diameter)

Row | SMILES | inhibition zone diameter (number of plus signs) [1] | inhibition zone diameter (number of plus signs) (Enterobacter cloacae) | inhibition zone diameter (number of plus signs) (Erwinia amylovora) | inhibition zone diameter (number of plus signs) (Klebsiella pneumoniae) | inhibition zone diameter (number of plus signs) (Morganella morganii) | inhibition zone diameter (number of plus signs) (Salmonella typhimurium) | inhibition zone diameter (number of plus signs) (Yersinia enterocolitica) | inhibition zone diameter (number of plus signs) [2] | inhibition zone diameter (number of plus signs) [3] | inhibition zone diameter (number of plus signs) (Pseudomonas syringae) | inhibition zone diameter (number of plus signs) (Rhizobium meliloti) | inhibition zone diameter (number of plus signs) (Haemophilus influenzae) | minimal inhibitory concentration (MIC) (E. coli Apid^R [4]; inoculum 1000 CFU/ml) | minimal inhibitory concentration (MIC) (E. coli 11775 [7]; inoculum 16 × 10^6 CFU/ml) | minimal inhibitory concentration (MIC) (E. coli 11775 [7]; inoculum 1200 CFU/ml) | minimal inhibitory concentration (MIC) (E. coli 23802) | minimal inhibitory concentration (MIC) (E. coli 25922) | minimal inhibitory concentration (MIC) (S. typhimurium) | minimal inhibitory concentration (MIC) (A. calcoaceticus) | antibacterial activity, overall (inhibition zone) (strains tested) | also measured
1 | CC[C@H](C)[C@H](NC(=O)[C@H](Cc1ccc(O)cc1)NC(=O)[C@@H](NC(=O)[C@@H]1CCCN1C(=O)[C@H](CCCNC(=N)N)NC(=O)[C@H](CC(N)=O)NC(=O)[C@H](CC(N)=O)NC(=O)CN)C(C)C)C(=O)N1CCC[C@H]1C(=O)N[C@@H](CCC(N)=O)C(=O)N1CCC[C@H]1C(=O)N[C@@H](CCCNC(=N)N)C(=O)N1CCC[C@H]1C(=O)N1CCC[C@H]1C(=O)N[C@@H](Cc1c[nH]cn1)C(=O)N1CCC[C@H]1C(=O)N[C@@H](CCCNC(=N)N)C(=O)N[C@@H](CC(C)C)C(=O)O [Hb Ib, reference compound] (H-GNNRPVYIPQPRPPHPRL-OH) | ++++ ((++++) 15-19 mm) | +++ ((+++) 10-14 mm) | ++++ ((++++) 15-19 mm) | +++ ((+++) 10-14 mm) | + ((+) 5-6 mm) | +++ ((+++) 10-14 mm) | +++ ((+++) 10-14 mm) | + ((+) 5-6 mm) | +++++ ((+++++) 20 or more min) | ++++ ((++++) 15-19 mm) | +++++ ((+++++) 20 or more min) | +++ ((+++) 10-14 mm) | 20 to 40 µg/mL | 1 to 5 µg/mL | < 0.05 µg/mL | 10 to 20 µg/mL | 0.5 to 1 µg/mL | 1 to 5 µg/mL | 10 to 20 µg/mL |  | minimal inhibitory concentration (MIC) (E. coli Apid^R [4]; inoculum 12 × 10^6 CFU/ml): > 40 µg/mL; MIC value (E. coli 11775 [5]): 0.1 µg/mL (≈ 0.0474 µM); resistance of mutant relative to parental strain (higher apidaecin concentrations) (E. coli Apid^R [6]; 11775Apid^R vs ATCC 11775): approximately 500 fold; MIC value (E. coli Apid^R [6]; against 10^7 cells/ml, mutant strain 11775Apid^R): 50 µg/mL (≈ 23.7 µM); minimal inhibitory concentration (MIC) (M. morganii): 1 to 5 µg/mL; minimal inhibitory concentration (MIC) (Y. enterocolitica): 1 to 5 µg/mL
2 | CC[C@H](C)[C@H](NC(=O)[C@@H]1CCCN1C(=O)[C@@H](NC(=O)[C@H](CCC(N)=O)NC(=O)[C@@H]1CCCN1C(=O)[C@H](CO)NC(=O)[C@@H]1CCCN1C(=O)[C@H](CCCNC(=N)N)NC(=O)[C@@H](N)CO)C(C)C)C(=O)N[C@@H](CCCNC(=N)N)C(=O)N1CCC[C@H]1C(=O)N[C@@H](CO)C(=O)N[C@@H](CCC(N)=O)C(=O)N1CCC[C@H]1C(=O)N[C@@H](CCCNC(=N)N)C(=O)N1CCC[C@H]1C(=O)N[C@@H](CCC(N)=O)C(=O)N1CCC[C@H]1C(=O)N[C@@H](Cc1ccccc1)C(=O)N[C@@H](CCCCN)C(=O)N1CCC[C@H]1C(=O)N[C@@H](CCCNC(=N)N)C(=O)N1CCC[C@H]1C(=O)N[C@@H](CCC(N)=O)C(=O)N[C@@H](CCC(N)=O)C(=O)N[C@H](C(=O)N1CCC[C@H]1C(=O)N1CCC[C@H]1C(=O)N[C@@H](CCCNC(=N)N)C(=O)N[C@H](C(=O)N1CCC[C@H]1C(=O)N[C@@H](Cc1c[nH]cn1)C(=O)N1CCC[C@H]1C(=O)N[C@@H](CCCNC(=N)N)C(=O)N[C@@H](CC(C)C)C(=O)O)[C@@H](C)O)C(C)C [PAB-FT 1-35, SRPSPQVPIRPSQPRPQPFKPRPQQVPPRTPHPRL] (H-SRPSPQVPIRPSQPRPQPFKPRPQQVPPRTPHPRL-OH) |  |  |  |  |  |  |  |  |  |  |  |  |  |  |  |  |  |  |  | has antibacterial activity | Inhibition zones: in mm diameter [1, 9]: 10 mm; Inhibition zones: in mm diameter (Enterobacter cloacae; [9]): 11 mm; Inhibition zones: in mm diameter (Erwinia amylovora; [9]): 5 mm; Inhibition zones: in mm diameter (Klebsiella pneumoniae; [9]): 9 mm; Inhibition zones: in mm diameter (Salmonella typhimurium; [9]): 7 mm; Inhibition zones: in mm diameter (Salmonella typhi; [9]): 14 mm; Inhibition zones: in mm diameter (Shigella dysenteriae): 12 mm; Inhibition zones: in mm diameter [2, 9]: 7 mm; Inhibition zones: in mm diameter [3, 9]: 5 mm; Inhibition zones: in mm diameter (E. coli D22): 14 mm
3 | CC[C@H](C)[C@H](NC(=O)[C@H](Cc1ccc(O)cc1)NC(=O)[C@@H](NC(=O)[C@@H]1CCCN1C(=O)[C@H](CCCNC(=N)N)NC(=O)[C@H](CC(N)=O)NC(=O)[C@H](CC(N)=O)NC(=O)CN)C(C)C)C(=O)N1CCC[C@H]1C(=O)N[C@@H](CCC(N)=O)C(=O)N1CCC[C@H]1C(=O)N[C@@H](CCCNC(=N)N)C(=O)N1CCC[C@H]1C(=O)N1CCC[C@H]1C(=O)N[C@@H](Cc1cnc[nH]1)C(=O)N1CCC[C@H]1C(=O)N[C@@H](CCCNC(=N)N)C(=O)N[C@@H](CC(C)C)C(=O)O [Apidaecin] (H-GNNRPVYIPQPRPPHPRL-OH) |  |  |  |  |  |  |  |  |  |  |  |  |  |  |  |  |  |  |  |  | dose inhibiting viability (gram negative bacteria): nanomolar doses; effect on gram positives (gram positives): unaffected
4 | CC(C)C[C@H](NC(=O)[C@H](CCCNC(=N)N)NC(=O)[C@@H]1CCCN1C(=O)[C@H](Cc1c[nH]cn1)NC(=O)[C@@H]1CCCN1C(=O)[C@@H](NC(=O)[C@H](CCCNC(=N)N)NC(=O)[C@@H]1CCCN1C(=O)[C@@H]1CCCN1C(=O)[C@@H](NC(=O)[C@H](CCC(N)=O)NC(=O)[C@H](CCC(N)=O)NC(=O)[C@@H]1CCCN1C(=O)[C@H](CCCNC(=N)N)NC(=O)[C@@H]1CCCN1C(=O)[C@H](CCCCN)NC(=O)[C@@H](N)Cc1ccccc1)C(C)C)[C@@H](C)O)C(=O)O [HoFT, F K P R P Q Q V P P R T P H P R L] (H-FKPRPQQVPPRTPHPRL-OH) |  |  |  |  |  |  |  |  |  |  |  |  |  |  |  |  |  |  |  | lack detectable antibacterial activity | 
5 | CC(C)C[C@H](NC(=O)[C@H](CCCNC(=N)N)NC(=O)[C@@H]1CCCN1C(=O)[C@H](Cc1c[nH]cn1)NC(=O)[C@@H]1CCCN1C(=O)[C@@H](NC(=O)[C@H](CCCNC(=N)N)NC(=O)[C@@H]1CCCN1C(=O)[C@@H]1CCCN1C(=O)[C@@H](NC(=O)[C@H](CCC(N)=O)NC(=O)[C@H](CCC(N)=O)NC(=O)[C@@H]1CCCN1C(=O)[C@H](CCCNC(=N)N)NC(=O)[C@@H]1CCCN1C(=O)[C@H](CCCCN)NC(=O)CN)C(C)C)[C@@H](C)O)C(=O)O [HoGT, G K P R P Q Q V P P R T P H P R L] (H-GKPRPQQVPPRTPHPRL-OH) |  |  |  |  |  |  |  |  |  |  |  |  |  |  |  |  |  |  |  | lack detectable antibacterial activity | 
6 | CC[C@H](C)[C@H](NC(=O)[C@@H]1CCCN1C(=O)[C@H](C)NC(=O)[C@@H]1CCCN1C(=O)[C@H](CCCNC(=N)N)NC(=O)[C@@H]1CCCN1C(=O)[C@H](CCCNC(=N)N)NC(=O)[C@@H](N)CC(N)=O)C(=O)N[C@@H](CCC(N)=O)C(=O)N1CCC[C@H]1C(=O)N[C@@H](CCCNC(=N)N)C(=O)N1CCC[C@H]1C(=O)N1CCC[C@H]1C(=O)N[C@@H](Cc1c[nH]cn1)C(=O)N1CCC[C@H]1C(=O)N[C@@H](CCCNC(=N)N)C(=O)N[C@@H](CC(C)C)C(=O)O [Cd 1-, Asn--Arg--Pro--Arg--Pro--Ala--Pro--Ile--Gln--Pro--Arg--Pro--Pro--His--Pro--Arg--Leu] (H-NRPRPAPIQPRPPHPRL-OH) | +++ ((+++) 10-14 mm) | +++ ((+++) 10-14 mm) | ++++ ((++++) 15-19 mm) | ++ ((++) 7-9 mm) | ++ ((++) 7-9 mm) | +++ ((+++) 10-14 mm) | ++ ((++) 7-9 mm) | ++ ((++) 7-9 mm) | +++ ((+++) 10-14 mm) | ++++ ((++++) 15-19 mm) | ++++ ((++++) 15-19 mm) | +++ ((+++) 10-14 mm) | > 40 µg/mL | 0.5 to 1 µg/mL | 0.5 to 1 µg/mL | 5 to 10 µg/mL | 0.5 to 1 µg/mL | 0.5 to 1 µg/mL | > 20 µg/mL |  | inhibition zone diameter (number of plus signs) [8]: ++ ((++) 7-9 mm); inhibition zone diameter (number of plus signs) (Salmonella typhi; agar plate, 50 nanomoles/well, 3 mm wells): ++ ((++) 7-9 mm); inhibition zone diameter (number of plus signs) (Francisella tularensis): ++ ((++) 7-9 mm); minimal inhibitory concentration (MIC) (M. morganii): 20 to 40 µg/mL; minimal inhibitory concentration (MIC) (Y. enterocolitica): 5 to 10 µg/mL
